In US20240417405A1, “Substituted Spiro Derivatives” (Janssen Pharmaceutica NV, priority 2021, published 2024):

Assays:
[1] = target: T1, menin/MLL (terbium chelate-labeled menin, FITC-MBM1 peptide) (Homo sapiens, UniProt O00255, T541A); test: Menin/MLL homogenous time-resolved fluorescence (HTRF) assay; assay type: binding; details: 30 min incubation
T1 construct: Menin (a.a 1-610-6xhis tag)
T1 sequence (O00255 with tags, fused parts or gaps T541A): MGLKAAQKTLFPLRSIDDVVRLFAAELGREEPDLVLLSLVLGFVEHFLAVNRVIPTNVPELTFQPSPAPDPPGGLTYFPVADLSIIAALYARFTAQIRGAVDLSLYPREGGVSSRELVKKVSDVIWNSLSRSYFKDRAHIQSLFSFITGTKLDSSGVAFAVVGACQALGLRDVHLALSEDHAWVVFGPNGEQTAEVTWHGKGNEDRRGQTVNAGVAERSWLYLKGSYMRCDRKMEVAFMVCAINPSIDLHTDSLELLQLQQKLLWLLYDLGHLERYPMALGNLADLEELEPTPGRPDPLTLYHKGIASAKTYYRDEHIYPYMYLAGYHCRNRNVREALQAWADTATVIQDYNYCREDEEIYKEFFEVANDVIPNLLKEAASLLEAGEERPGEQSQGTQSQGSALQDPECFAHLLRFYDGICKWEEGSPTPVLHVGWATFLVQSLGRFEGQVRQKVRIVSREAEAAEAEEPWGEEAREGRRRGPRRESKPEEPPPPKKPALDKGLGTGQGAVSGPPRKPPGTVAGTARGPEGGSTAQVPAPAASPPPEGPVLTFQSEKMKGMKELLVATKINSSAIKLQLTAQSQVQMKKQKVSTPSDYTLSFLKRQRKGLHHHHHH
Experimental: 1) Menin/MLL Homogenous Time-Resolved Fluorescence (HTRF) Assay
To an untreated, white 384-well microtiter plate was added 40 nL 200× test compound in DMSO and 4 μL 2× terbium chelate-labeled menin (vide infra for preparation) in assay buffer (40 mM Tris.HCl, pH 7.5, 50 mM NaCl, 1 mM DTT (dithiothreitol) and 0.05% Pluronic F-127). After incubation of test compound and terbium chelate-labeled menin for 30 min at ambient temperature, 4 μL 2× FITC-MBM1 peptide (FITC-β-alanine-SARWRFPARPGT-NH2 (SEQ ID NO: 3)) (“FITC” means fluorescein isothiocyanate) in assay buffer was added, the microtiter plate centrifuged at 1000 rpm for 1 min and the assay mixtures incubated for 15 min at ambient temperature. The relative amount of menin FITC-MBM1 complex present in an assay mixture is determined by measuring the homogenous time-resolved fluorescence (HTRF) of the terbium/FITC donor/acceptor fluorophore pair using an EnVision microplate reader (ex. 337 nm/terbium em. 490 nm/FITC em. 520 nm) at ambient temperature. The degree of fluorescence resonance energy transfer (the HTRF value) is expressed as the ratio of the fluorescence emission intensities of the FITC and terbium fluorophores (F^em 520 nm/F^em 490 nm). The final concentrations of reagents in the binding assay are 200 pM terbium chelate-labeled menin, 75 nM FITC-MBM1 peptide and 0.5% DMSO in assay buffer. Dose-response titrations of test compounds are conducted using an 11 point, four-fold serial dilution scheme, starting typically at 10 μM.
Compound potencies were determined by first calculating % inhibition at each compound concentration according to equation 1:
% inhibition=((HC−LC)−(HTRF^compound−LC))/(HC−LC))*100 (Eqn 1)
Where LC and HC are the HTRF values of the assay in the presence or absence of a saturating concentration of a compound that competes with FITC-MBM1 for binding to menin, and HTRF^compound is the measured HTRF value in the presence of the test compound. HC and LC HTRF values represent an average of at least 10 replicates per plate.
% inhibition=Bottom+(Top−Bottom)/(1+10^((logIC50−log[cmpd])*h)) (Eqn 2)
Where Bottom and Top are the lower and upper asymptotes of the dose-response curve, respectively, IC50 is the concentration of compound that yields 50% inhibition of signal and h is the Hill coefficient. IC50 values below 0.1 nM in the HTRF assay were reported as 0.1 nM in the Table below (detection limit).
Preparation of Terbium cryptate labeling of Menin: Menin (a.a 1-610-6xhis tag (“6xhis tag” disclosed as SEQ ID NO: 2), 2.3 mg/mL in 20 mM Hepes (2-[4-(2-Hydroxyethyl)-1-piperazinyl]ethane sulfonic acid), 80 mM NaCl, 5 mM DTT (Dithiothreitol), pH 7.5) was labeled with terbium cryptate as follows. 200 μg of Menin was buffer exchanged into 1× Hepes buffer. 6.67 μM Menin was incubated with 8-fold molar excess NHS (N-hydroxysuccinimide)-terbium cryptate for 40 minutes at room temperature. Half of the labeled protein was purified away from free label by running the reaction over a NAP5 column with elution buffer (0.1 M Hepes, pH 7+0.1% BSA (bovine serum albumin)). The other half was eluted with 0.1 M phosphate buffered saline (PBS), pH7. 400 μl of eluent was collected for each, aliquoted and frozen at −80° C. The final concentration of terbium-labeled Menin protein was 115 μg/mL in Hepes buffer and 85 μg/mL in PBS buffer, respectively.

MOLM14 cells = test: Proliferation assay, spheroid-like growth, MOLM14 (MLL-AF9 rearranged); assay type: cell-based, human; details: Homo sapiens, MOLM-14, 192 h, 8 days, confluence as measure of spheroid size, read-out: spheroid assay_OneTime MOLM14 IC50
Experimental: The anti-proliferative effect of menin/MLL protein/protein interaction inhibitor test compounds was assessed in human leukemia cell lines. The cell line MOLM14 harbors a MLL translocation and expresses the MLL fusion proteins MLL-AF9, respectively, as well as the wildtype protein from the second allele. […] KO-52 was used as a control cell line containing two MLL (KMT2A) wildtype alleles in order to exclude compounds that display general cytotoxic effects.
MOLM14 cells were cultured in RPMI-1640 (Sigma Aldrich) supplemented with 10% heat-inactivated fetal bovine serum (HyClone), 2 mM L-glutamine (Sigma Aldrich) and 50 μg/ml gentamycin (Gibco). KO-52 cell lines were propagated in alpha-MEM (Sigma Aldrich) supplemented with 20% heat-inactivated fetal bovine serum (HyClone), 2 mM L-glutamine (Sigma Aldrich) and 50 μg/ml gentamycin (Gibco).
In order to assess the anti-proliferative effects, 200 MOLM14 cells, or 300 KO-52 cells were seeded in 200 μl media per well in 96-well round bottom, ultra-low attachment plates (Costar, catalogue number 7007). Cell seeding numbers were chosen based on growth curves to ensure linear growth throughout the experiment. Test compounds were added at different concentrations and the DMSO content was normalized to 0.3%. Cells were incubated for 8 days at 37° C. and 5% CO2. Spheroid like growth was measured in real-time by live-cell imaging (IncuCyteZOOM, Essenbio, 4× objective) acquiring images at day 8. Confluence (%) as a measure of spheroid size was determined using an integrated analysis tool.
In order to determine the effect of the test compounds over time, the confluence in each well as a measure of spheroid size, was calculated. Confluence of the highest dose of a reference compound was used as baseline for the LC (Low control) and the confluence of DMSO treated cells was used as 0% cytotoxicity (High Control, HC).
Absolute IC50 values were calculated as percent change in confluence as follows:
LC=Low Control: cells treated with e.g. 1 μM of the cytotoxic agent staurosporin, or e.g. cells treated with a high concentration of an alternative reference compound
GraphPad Prism (version 7.00) was used to calculate the IC50. Dose-response equation was used for the plot of % Effect vs Log 10 compound concentration with a variable slope and fixing the maximum to 100% and the minimum to 0%.

## CC(C)[C@H]([C@H]1C[C@@H](N2CCC3(CCO3)CC2)C1)N1CC2(CCN(c3ncnnc3Oc3ccc(F)cc3-c3cnncc3C3CC3)C2)C1 (single isomer, unassigned) [Compound 280a]
[1]
  IC50: 5 nM
MOLM14 cells
  IC50: > 940 nM

## CC(C)[C@@H]([C@H]1C[C@@H](N2CCC3(CCO3)CC2)C1)N1CC2(CCN(c3ncnnc3Oc3ccc(F)cc3-c3cnncc3C3CC3)C2)C1 (single isomer, unassigned) [Compound 281a]
[1]
  IC50: 0.17 nM
MOLM14 cells
  IC50: 10 nM

## CC(C)[C@@H]([C@H]1C[C@H](N2CCC3(CCO3)CC2)C1)N1CC2(CCN(c3ncnnc3Oc3ccc(F)cc3-c3cnncc3C3CC3)C2)C1 (single isomer, unassigned) [Compound 281b]
[1]
  IC50: 0.31 nM
MOLM14 cells
  IC50: 83 nM

## CO[C@H]1[C@@H]2CN([C@H]3C[C@@H]([C@H](C(C)C)N4CC5(CCN(c6ncnnc6Oc6ccc(F)cc6-c6cnncc6C6CC6)C5)C4)C3)C[C@@H]21 (single isomer, unassigned) [Compound 282a]
[1]
  IC50: 2.4 nM
MOLM14 cells
  IC50: 280 nM

## CC(C)[C@@H]([C@H]1C[C@@H](NC(=O)C2CC2)C1)N1CC2(CCN(c3ncnnc3Oc3ccc(F)cc3-c3n[nH]c(=O)cc3C3CC3)C2)C1 (single isomer, unassigned) [Compound 310]
[1]
  IC50: 24.2 nM
MOLM14 cells
  IC50: > 940 nM

## CC(C)[C@H]([C@H]1C[C@@H](N2CC3(CNC(=O)O3)C2)C1)N1CC2(CCN(c3ncnnc3Oc3ccc(F)cc3-c3cncnc3C3CC3)C2)C1 (single isomer, unassigned) [Compound 317]
[1]
  IC50: 0.3 nM
MOLM14 cells
  IC50: 60 nM

## CC(C)[C@@H]([C@H]1C[C@]2(COC(=O)N2)C1)N1CC2(CCN(c3ncnnc3Oc3ccc(F)cc3-c3cnncc3C3CC3)C2)C1 (single isomer, unassigned) [Compound 323]
[1]
  IC50: 0.2 nM
MOLM14 cells
  IC50: 53 nM

## CC(C)[C@H]([C@H]1C[C@@H](N2CCC3(CNC(=O)O3)C2)C1)N1CC2(CCN(c3ncnnc3Oc3ccc(F)cc3-c3nnccc3C3CC3)C2)C1 (single isomer, unassigned) [Compound 328]
[1]
  IC50: 0.1 nM
MOLM14 cells
  IC50: 33 nM

## CC(C)[C@H]([C@H]1C[C@@H](N2CCC3(CN(C)C(=O)O3)C2)C1)N1CC2(CCN(c3ncnnc3Oc3ccc(F)cc3-c3cncnc3C3CC3)C2)C1 (single isomer, unassigned) [Compound 329]
[1]
  IC50: 0.3 nM
MOLM14 cells
  IC50: 32 nM

## CO[C@H]1CCN([C@H]2C[C@H](C(C(C)C)N3CC4(CCN(c5ncnnc5Oc5ccc(F)cc5-c5nnccc5C5CC5)C4)C3)C2)C1 (single isomer, unassigned) [Compound 332]
[1]
  IC50: 0.7 nM
MOLM14 cells
  IC50: 37 nM

## CNC(=O)CCN(C)[C@H]1C[C@@H]([C@@H](C(C)C)N2CC3(CCN(c4ncnnc4Oc4ccc(F)cc4-c4cncnc4C4CC4)C3)C2)C1 (single isomer, unassigned) [Compound 350]
[1]
  IC50: 0.1 nM
MOLM14 cells
  IC50: 10 nM

## CC(=O)N1CC2(C1)CN([C@H]1C[C@H]([C@H](C(C)C)N3CC4(CCN(c5ncnnc5Oc5ccc(F)cc5-c5cnc(C)cc5C5CC5)C4)C3)C1)C2 (single isomer, unassigned) [Compound 372]
[1]
  IC50: 0.2 nM
MOLM14 cells
  IC50: 18 nM

## CC(=O)N1CC2(C1)CN([C@H]1C[C@H]([C@H](C(C)C)N3CC4(CCN(c5ncnnc5Oc5ccc(F)cc5-c5ncc(C)cc5C5CC5)C4)C3)C1)C2 (single isomer, unassigned) [Compound 374]
[1]
  IC50: 0.19 nM
MOLM14 cells
  IC50: 140 nM

## CO[C@H]1CCN(C2CC(C(C(C)C)N3CC4(CCN(c5ncnnc5Oc5ccc(F)cc5-c5nnc(C)cc5C5CC5)C4)C3)C2)C1 (single isomer, unassigned) [Compound 399]
[1]
  IC50: 0.92 nM
MOLM14 cells
  IC50: 200 nM

## CC(C)[C@H]([C@H]1C[C@@H](Nc2ccn3ccnc3c2)C1)N1CC2(CCN(c3ncnnc3Oc3ccc(F)cc3-c3cncnc3C3CC3)C2)C1 (single isomer, unassigned) [Compound 406]
[1]
  IC50: 0.3 nM
MOLM14 cells
  IC50: 42 nM
